Test results reported in PubChem BioAssay (NCI).
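Assay format: 96-well plates, 48-hour exposure. TGI is the concentration that stops growth completely.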

Legend:
Test in all cases: NCI tumour cell line growth inhibition, 48 h
SN12C renal = system: SN12C renal
MALME-3M melanoma = system: MALME-3M melanoma
SNB-19 CNS = system: SNB-19 CNS
UACC-257 melanoma = system: UACC-257 melanoma
SNB-75 CNS = system: SNB-75 CNS
COLO 205 colon = system: COLO 205 colon
MOLT-4 leukemia = system: MOLT-4 leukemia
HCT-15 colon = system: HCT-15 colon
SF-268 CNS = system: SF-268 CNS
NCI-H460 lung = system: NCI-H460 lung

| SMILES | TGI (SN12C renal) [µM] | TGI (MALME-3M melanoma) [µM] | TGI (SNB-19 CNS) [µM] | TGI (UACC-257 melanoma) [µM] | TGI (SNB-75 CNS) [µM] | TGI (COLO 205 colon) [µM] | TGI (MOLT-4 leukemia) [µM] | TGI (HCT-15 colon) [µM] | TGI (SF-268 CNS) [µM] | TGI (NCI-H460 lung) [µM] |
| --- | --- | --- | --- | --- | --- | --- | --- | --- | --- | --- |
| CCCCC1c2c([nH]c3ccccc23)C2C(=O)N(c3ccc(OC)cc3)C(=O)C2C1CCC (stereo not given) | 4.04 | 9.42 | > 10 | 9.62 | 6.5 | 6.34 | 7.97 | > 10 | > 10 | > 10 |
| COc1ccc(C2(CC(C)O)SCCCS2)cc1 (stereo not given) | > 100 | > 100 | > 100 | > 100 | > 100 | > 100 | > 100 | > 100 | > 100 | > 100 |
| COCOc1ccc(Cn2c(=O)n(C)c(=O)c3c2ncn3C)cc1[N+](=O)[O-] | > 100 | > 100 | > 100 | > 100 | > 100 | > 100 | > 100 | > 100 | > 100 | > 100 |
| c1ccc2c(c1)NC(C1OC3CCCN3C1C1Nc3ccccc3S1)S2 (stereo not given) | > 100 | > 100 | > 100 | > 100 | > 100 | > 100 | > 100 | > 100 | > 100 | > 100 |
| O=C1CN2C(c3ccccc3)=NN(c3ccc([N+](=O)[O-])cc3)C2(c2ccccc2)c2cc(Cl)ccc2N1CC1CC1 (stereo not given) | > 100 | > 100 | > 100 | > 100 | > 100 | > 100 | > 100 | > 100 | > 100 | > 100 |
